# From patent publication US20140154330A1, “SPHERICAL PARTICLES OF CLOPIDOGREL BISULFATE, PHARMACEUTICAL COMPOSITION COMPRISING THE SAME, AND PREPARATION METHOD THEREOF” (ASTECH. CO., LTD., priority 2011, published 2014)
# How the values were obtained:
# [1] = laser diffraction, dry module, 1 bar
# Method: The particles obtained in Example 1 and Comparative Examples 1 and 2 were analyzed for particle size distribution using a particle size analyzer (Mastersizer 2000®, Malvern) based on laser diffraction. The samples were injected at a pressure of 1 bar with a dry module (Scirocco 2000®, Malvern). Each particle was measured for particle size (d0.1), particle size (d0.5) and particle size (d0.9).
# [2] = crystalline form; see U.S. Pat. No. 6,429,210; cited from earlier work
d(0.1) [1],d(0.5) [1],d(0.9) [1],SMILES,density [2]
1.052 μm,6.055 μm,13.724 μm,"COC(=O)[C@H](c1ccccc1Cl)N1CCc2sccc2C1 [Comp. Example 1, clopidogrel bisulfate]",
8.475 μm,85.770 μm,168.393 μm,"COC(=O)[C@H](c1ccccc1Cl)N1CCc2sccc2C1 [Comp. Example 2, clopidogrel bisulfate]",
52.536 μm,74.567 μm,106.074 μm,"COC(=O)[C@H](c1ccccc1Cl)N1CCc2sccc2C1 [Example 1, clopidogrel bisulfate]",
,,,"COC(=O)[C@H](c1ccccc1Cl)N1CCc2sccc2C1 [Form I, clopidogrel bisulfate]",1.505 g/cm^2
,,,"COC(=O)[C@H](c1ccccc1Cl)N1CCc2sccc2C1 [Form II, clopidogrel bisulfate]",1.462 g/cm^2
